# From ChEMBL document CHEMBL3046267, “Induction of Phytoalexin Formation in Suspension-cultured Rice Cells byN-Acetyl-chitooligosaccharides” (1993)
# Calls of active or inactive are those of the source. The rule behind the calls is not given here.
# Key:
# Type in all cases: functional
# [1] = test system: Pyricularia oryzae; assay: Antifungal activity against Magnaporthe oryzae assessed as inhibition of germ tube growth at 1 to 5 ug/ml relative to control
# [2] = test system: Oryza sativa; assay: Induction of phytoalexin formation in suspension-cultured Oryza sativa (rice) cells assessed as accumulation of intracellular momilactone B at 10 ug/ml after 48 hr by GC/GC-MS analysis
# [3] = test system: Oryza sativa; assay: Induction of phytoalexin formation in suspension-cultured Oryza sativa (rice) cells assessed as accumulation of momilactone A in culture medium at 0.7 x 10^-9 to 0.7 x 10^-6 M after 48 hr by GC/GC-MS analysis
# [4] = test system: Oryza sativa; assay: Induction of phytoalexin formation in suspension-cultured Oryza sativa (rice) cells assessed as accumulation of intracellular momilactone A at 0.7 x 10^-9 to 0.7 x 10^-6 M after 48 hr by GC/GC-MS analysis
# [5] = test system: Oryza sativa; assay: Induction of phytoalexin formation in suspension-cultured Oryza sativa (rice) cells assessed as accumulation of intracellular momilactone A at 0.7 x 10^-9 to 0.7 x 10^-6 M after 72 hr by GC/GC-MS analysis
# [6] = test system: Oryza sativa; assay: Induction of phytoalexin formation in suspension-cultured Oryza sativa (rice) cells assessed as accumulation of momilactone A in culture medium at 0.7 x 10^-9 to 0.7 x 10^-6 M after 72 hr by GC/GC-MS analysis
# [7] = test system: Oryza sativa; assay: Induction of phytoalexin formation in suspension-cultured Oryza sativa (rice) cells assessed as accumulation of momilactone A in culture medium at 0.7 x 10^-9 to 0.7 x 10^-6 M after 24 hr by GC/GC-MS analysis
# [8] = test system: Oryza sativa; assay: Induction of phytoalexin formation in suspension-cultured Oryza sativa (rice) cells assessed as accumulation of intracellular momilactone A at 0.7 x 10^-9 to 0.7 x 10^-6 M after 24 hr by GC/GC-MS analysis
Compound,growth inhibition (GI) [1],Activity [2],Activity [3],Activity [4],Activity [5],Activity [6],Activity [7],Activity [8]
C=C[C@]1(C)CC[C@@H]2C(=C[C@H]3OC(=O)[C@@]4(C)C(=O)CC[C@@]2(C)[C@@H]34)C1 [MOMILACTONE A],50%,–,–,–,–,–,–,–
C=C[C@]1(C)CC[C@@H]2C(=C[C@H]3OC(=O)[C@]4(C)[C@H]3[C@]23CC[C@@]4(O)OC3)C1 [MOMILACTONE B],50%,–,–,–,–,–,–,–
CC(=O)N[C@H]1[C@H](O[C@@H]([C@H](O)[C@H](C=O)NC(C)=O)[C@H](O)CO)O[C@H](CO)[C@@H](O[C@@H]2O[C@H](CO)[C@@H](O[C@@H]3O[C@H](CO)[C@@H](O[C@@H]4O[C@H](CO)[C@@H](O[C@@H]5O[C@H](CO)[C@@H](O[C@@H]6O[C@H](CO)[C@@H](O)[C@H](O)[C@H]6NC(C)=O)[C@H](O)[C@H]5NC(C)=O)[C@H](O)[C@H]4NC(C)=O)[C@H](O)[C@H]3NC(C)=O)[C@H](O)[C@H]2NC(C)=O)[C@@H]1O [N-ACETYLCHITOHEPTAOSE],–,Active,161 µg/g,41 µg/g,56 µg/g,149 µg/g,24 µg/g,16 µg/g
